# Source: paper PMC9765455 (Science Translational Medicine, 2022)
# Like-named read-outs stand apart in the source and are kept apart here.
# Assays:
# P-glycoprotein (P-gp) [1] = details: cited from earlier work
# SARS-CoV-2 Delta = test: CPE-based cell viability assay (MTT); details: read-out: EC50 against SARS-CoV-2 Delta
# COVID-19 = details: cited from earlier work
# host DNA = test system: host DNA; parameters: method as in PMID 33961695; details: cell-based assays; cited from earlier work
# [2] = test system: SARS-CoV-2 Omicron BA.2.75; parameters: species or system Syrian hamsters; details: hamster, in vivo, 200 mg/kg
# [3] = healthy adults, phase 1 trial; cited from earlier work
# [4] = male, Syrian, hamster, in vivo
# [5] = test system: Calu-3 cells, Vero-TMPRSS2 cells, primary human bronchial epithelial cells; test: Compound cytotoxicity assay (CellTiter-Glo / LDH-Glo); format: cell-based; details: at the examined concentrations, 3 days
# SARS-CoV-2 VOCs = test: CPE-based MTT assay against SARS-CoV-2 VOCs in 293T-hACE2-TMPRSS2 cells (fig. S4); format: cell-based; details: 293T-hACE2-TMPRSS2, fig. S4
# Method: Antiviral compounds and antibodies were serially diluted 2-fold increments by culture medium containing 2% FBS and plated on 96-well microplates. The diluted compounds in the plates were mixed with SARS-CoV-2 and cell suspensions. The diluted antibodies were initially incubated with SARS-CoV-2 for 30 minutes and then added to the cell suspension. Cells in the plates were cultured for 2 to 3 days, and then exposed to MTT (3-[4,5-dimethyl-2-thiazolyl]-2,5-diphenyl-2H-tetrazolium bromide) (Nacalai Tesque). Cell viability was determined by measurement of absorbance at 560 nm and 690 nm. EC50 values were defined in GraphPad Prism version 8.4.3 (GraphPad Software) with a variable slope (four parameters).
# Cytopathic effect (CPE) in 293T-hACE2-TMPRSS2 cells induced by SARS-CoV-2 infection was measured at 3 dpi by 3-[4,5-dimethyl-2-thiazolyl]-2,5-diphenyl-2H-tetrazolium bromide (MTT) […]
# assay. […] Uninfected cells
# (1 picture or pasted object on this page, not shown here)
# SARS-CoV-2 Omicron BA.2 = test system: SARS-CoV-2 Omicron BA.2; parameters: species or system Syrian hamsters; details: hamster, in vivo, 200 mg/kg
# [6] = test system: SARS-CoV-2 Alpha (lineage B.1.1.7); parameters: species or system Syrian hamsters; details: hamster, in vivo, 200 mg/kg
# [7] = Pharmacokinetics after single oral administration
# SARS-CoV-2 Omicron BA.5 = test system: SARS-CoV-2 Omicron BA.5; parameters: species or system Syrian hamsters; details: hamster, in vivo, 200 mg/kg
# HCoV-OC43 = details: cited from earlier work
# P-glycoprotein (P-gp) [8] = test: P-gp substrate assessment; details: inferred from CP-100356 enhancement in Vero-TMPRSS2
# SARS-CoV-2 Omicron BA.1 = test system: SARS-CoV-2 Omicron BA.1; parameters: species or system Syrian hamsters; details: hamster, in vivo, 200 mg/kg
# [9] = test system: SARS-CoV-2 Gamma (lineage P.1); parameters: species or system Syrian hamsters; details: hamster, in vivo, 200 mg/kg
# MERS-CoV = details: cited from earlier work
# SARS-CoV = details: cited from earlier work
# [10] = Severe acute respiratory syndrome coronavirus 2, 293 T-hACE2-TMPRSS2
# [11] = Severe acute respiratory syndrome coronavirus 2, Vero/TMPRSS2, Vero-TMPRSS2
# [12] = Severe acute respiratory syndrome coronavirus 2, Vero/TMPRSS2, Vero-TMPRSS2 with CP-100356
compound,measurement,setting,value
CCC(CC)COC(=O)[C@H](C)N[P@](=O)(OC[C@H]1O[C@@](C#N)(c2ccc3c(N)ncnn23)[C@H](O)[C@@H]1O)Oc1ccccc1 [Remdesivir],substrate of P-gp,P-glycoprotein (P-gp) [1],major substrates
same,EC50,SARS-CoV-2 Delta; [10],< 3.9 nM
same,EC50,SARS-CoV-2 Delta; [11],> 500 nM
same,EC50,SARS-CoV-2 Delta; [12],32 ± 4.52 nM
CC(C)(C)[C@H](NC(=O)C(F)(F)F)C(=O)N1C[C@H]2[C@@H]([C@H]1C(=O)N[C@H](C#N)C[C@@H]1CCNC1=O)C2(C)C [Nirmatrelvir],substrate of P-gp,P-glycoprotein (P-gp) [1],major substrates
same,reduction in the risk of hospitalization or death,COVID-19,88%
same,EC50,SARS-CoV-2 Delta; [10],37 ± 5.3 nM
same,EC50,SARS-CoV-2 Delta; [11],> 1000 nM
same,EC50,SARS-CoV-2 Delta; [12],132 ± 32 nM
"O=c1nc(NO)ccn1[C@@H]1O[C@H](CO)[C@@H](O)[C@H]1O [NHC, N-hydroxycytidine]",EC50,SARS-CoV-2 Delta; [10],538 ± 142 nM
same,EC50,SARS-CoV-2 Delta; [11],360 ± 49.4 nM
same,EC50,SARS-CoV-2 Delta; [12],677 ± 8.89 nM
"CC(C)C(=O)OC[C@H]1O[C@@H](n2ccc(NO)nc2=O)[C@H](O)[C@@H]1O [Molnupiravir, reference compound]",mutagenesis,host DNA,mutagenesis not only for viral RNA but also for host DNA
same,decrease of the risk of hospitalization for COVID-19,COVID-19; clinical trial,30%
same,EC50,SARS-CoV-2 Delta; [10],3680 ± 1090 nM
same,EC50,SARS-CoV-2 Delta; [11],3170 ± 217 nM
same,EC50,SARS-CoV-2 Delta; [12],2280 ± 118 nM
Cn1cnc(Cn2c(=O)[nH]/c(=N\c3cc4cn(C)nc4cc3Cl)n(Cc3cc(F)c(F)cc3F)c2=O)n1 [S-217622],Fig. 3A: Viral RNA,[2],n.d.(=1)
same,Fig. 3B: Virus titer,[2],n.d.(=100)
same,bioavailability and tolerability,[3],favorable bioavailability and tolerability
same,time at which plasma concentration reached the maximum,[4],0.5 to 2.67 h
same,cytotoxicity,[5],No cytotoxicity was observed
same,antiviral activity against VOCs,SARS-CoV-2 VOCs,exhibited antiviral activity against all VOCs
same,Fig. 3B: Virus titer,SARS-CoV-2 Omicron BA.2,n.d.(=100)
same,Fig. 3B: Virus titer,[6],n.d.(=100)
same,Cmax and AUC dose proportionality,[7]; 10 to 100 mg/kg,increased more than the dose ratio
same,bioavailability,"[7]; hamsters, plasma",excellent bioavailability
same,half-life,"[7]; male, Syrian, hamster, plasma, po, 100 mg/kg",3.43 to 4.46 h
same,Fig. 3B: Virus titer,SARS-CoV-2 Omicron BA.5,n.d.(=100)
same,EC90,HCoV-OC43,74 nM
same,substrate of P-gp,P-glycoprotein (P-gp) [8],substrate of P-gp
same,EC50,SARS-CoV-2 Delta; [10],26 ± 6.65 nM
same,EC50,SARS-CoV-2 Delta; [11],407 ± 21.3 nM
same,EC50,SARS-CoV-2 Delta; [12],69 ± 11.2 nM
same,Fig. 3A: Viral RNA,SARS-CoV-2 Omicron BA.1,n.d.(=1)
same,Fig. 3B: Virus titer,SARS-CoV-2 Omicron BA.1,n.d.(=100)
same,Fig. 3B: Virus titer,[9],n.d.(=100)
same,EC50,MERS-CoV,1400 nM
same,EC50,SARS-CoV,210 nM
